Laboratory results as given in US12275731B2, “Azaindole inhibitors of wild-type and mutant forms of LRRK2” (DANA-FARBER CANCER INSTITUTE, INC., priority 2018, dated 2025).

Assays:
Test in all cases: KinomeScan profiling
Assay type in all cases: binding
DRAK2 = molecular target: T1, DRAK2 (Homo sapiens, UniProt O94768); details: DRAK2, 1 μM; read-out: % control
T1 sequence (O94768 1-372): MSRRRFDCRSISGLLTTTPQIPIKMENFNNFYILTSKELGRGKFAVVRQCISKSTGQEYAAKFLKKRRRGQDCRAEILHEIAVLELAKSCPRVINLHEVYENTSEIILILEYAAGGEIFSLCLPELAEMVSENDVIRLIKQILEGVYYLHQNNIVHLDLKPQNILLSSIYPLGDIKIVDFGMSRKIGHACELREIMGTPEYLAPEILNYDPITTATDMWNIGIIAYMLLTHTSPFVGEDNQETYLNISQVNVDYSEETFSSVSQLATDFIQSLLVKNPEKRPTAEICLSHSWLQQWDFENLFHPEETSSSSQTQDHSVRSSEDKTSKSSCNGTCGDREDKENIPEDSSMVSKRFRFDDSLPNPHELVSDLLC
Outline: (§1)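 Normalised RLU (% control; DMSO 100%, positive control 0%) was measured for compounds dosed at 1 μM over 468 kinases, active cut-off <35%.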

EPHA7 = EPHA7 (Homo sapiens, UniProt Q15375); details: EPHA7, 1 μM; read-out: % control
Chain of EPHA7 (Q15375 28-998): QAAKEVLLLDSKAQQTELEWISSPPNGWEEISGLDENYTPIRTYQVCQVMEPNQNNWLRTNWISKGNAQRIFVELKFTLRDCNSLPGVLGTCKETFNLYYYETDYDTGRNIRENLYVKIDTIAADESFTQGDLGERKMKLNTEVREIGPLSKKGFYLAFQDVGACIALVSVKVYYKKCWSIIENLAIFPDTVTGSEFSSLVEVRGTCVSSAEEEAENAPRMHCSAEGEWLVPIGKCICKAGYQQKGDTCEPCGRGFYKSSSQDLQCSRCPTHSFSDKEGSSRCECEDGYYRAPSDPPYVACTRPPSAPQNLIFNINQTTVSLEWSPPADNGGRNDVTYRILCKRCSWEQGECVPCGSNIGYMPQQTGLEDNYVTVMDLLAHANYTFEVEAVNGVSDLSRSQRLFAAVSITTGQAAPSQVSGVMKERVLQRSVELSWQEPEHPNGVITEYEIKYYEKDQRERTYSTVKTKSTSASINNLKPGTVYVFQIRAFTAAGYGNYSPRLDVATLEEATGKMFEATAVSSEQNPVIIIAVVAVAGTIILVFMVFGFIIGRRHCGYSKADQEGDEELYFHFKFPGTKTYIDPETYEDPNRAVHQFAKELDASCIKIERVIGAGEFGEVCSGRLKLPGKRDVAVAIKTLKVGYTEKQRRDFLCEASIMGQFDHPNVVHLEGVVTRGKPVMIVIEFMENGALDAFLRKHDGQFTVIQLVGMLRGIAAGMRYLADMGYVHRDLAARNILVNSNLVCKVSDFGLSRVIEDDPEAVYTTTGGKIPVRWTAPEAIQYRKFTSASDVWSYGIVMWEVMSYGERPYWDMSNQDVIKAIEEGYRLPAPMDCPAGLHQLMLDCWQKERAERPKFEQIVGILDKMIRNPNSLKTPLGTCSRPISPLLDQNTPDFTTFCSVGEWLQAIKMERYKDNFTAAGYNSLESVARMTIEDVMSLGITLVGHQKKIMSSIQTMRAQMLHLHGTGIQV
Outline: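 Luminescence (RLU) was converted to percent of control, with DMSO set as 100% and a reference compound as 0%. Test compounds were run at 1 μM against 468 kinases. Kinases showing below 35% of control were scored as bound.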

MAPKAPK5 = molecular target: T2, MAPKAPK5 (Homo sapiens, UniProt Q8IW41); details: MAPKAPK5, 1 μM; read-out: % control
T2 sequence (Q8IW41 1-473): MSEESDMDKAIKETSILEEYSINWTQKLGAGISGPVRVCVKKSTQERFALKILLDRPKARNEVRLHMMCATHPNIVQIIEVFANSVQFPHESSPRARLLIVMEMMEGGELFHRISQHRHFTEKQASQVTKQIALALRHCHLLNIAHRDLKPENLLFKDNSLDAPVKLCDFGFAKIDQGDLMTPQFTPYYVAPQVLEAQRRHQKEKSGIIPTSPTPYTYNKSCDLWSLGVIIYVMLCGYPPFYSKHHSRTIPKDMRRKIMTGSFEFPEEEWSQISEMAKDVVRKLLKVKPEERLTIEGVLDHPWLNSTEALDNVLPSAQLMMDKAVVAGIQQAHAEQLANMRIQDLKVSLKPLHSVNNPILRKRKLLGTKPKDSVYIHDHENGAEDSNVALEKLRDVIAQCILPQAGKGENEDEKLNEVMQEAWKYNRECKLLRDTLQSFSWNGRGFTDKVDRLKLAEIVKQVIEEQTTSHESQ
Outline: as §1

PIK3CA(E545A) = molecular target: T3, PIK3CA(E545A) (Homo sapiens, UniProt P42336, E545A); details: read-out: % control
T3 construct: purchased KinomeScan® (panel service)
T3 sequence (P42336 whole entry E545A): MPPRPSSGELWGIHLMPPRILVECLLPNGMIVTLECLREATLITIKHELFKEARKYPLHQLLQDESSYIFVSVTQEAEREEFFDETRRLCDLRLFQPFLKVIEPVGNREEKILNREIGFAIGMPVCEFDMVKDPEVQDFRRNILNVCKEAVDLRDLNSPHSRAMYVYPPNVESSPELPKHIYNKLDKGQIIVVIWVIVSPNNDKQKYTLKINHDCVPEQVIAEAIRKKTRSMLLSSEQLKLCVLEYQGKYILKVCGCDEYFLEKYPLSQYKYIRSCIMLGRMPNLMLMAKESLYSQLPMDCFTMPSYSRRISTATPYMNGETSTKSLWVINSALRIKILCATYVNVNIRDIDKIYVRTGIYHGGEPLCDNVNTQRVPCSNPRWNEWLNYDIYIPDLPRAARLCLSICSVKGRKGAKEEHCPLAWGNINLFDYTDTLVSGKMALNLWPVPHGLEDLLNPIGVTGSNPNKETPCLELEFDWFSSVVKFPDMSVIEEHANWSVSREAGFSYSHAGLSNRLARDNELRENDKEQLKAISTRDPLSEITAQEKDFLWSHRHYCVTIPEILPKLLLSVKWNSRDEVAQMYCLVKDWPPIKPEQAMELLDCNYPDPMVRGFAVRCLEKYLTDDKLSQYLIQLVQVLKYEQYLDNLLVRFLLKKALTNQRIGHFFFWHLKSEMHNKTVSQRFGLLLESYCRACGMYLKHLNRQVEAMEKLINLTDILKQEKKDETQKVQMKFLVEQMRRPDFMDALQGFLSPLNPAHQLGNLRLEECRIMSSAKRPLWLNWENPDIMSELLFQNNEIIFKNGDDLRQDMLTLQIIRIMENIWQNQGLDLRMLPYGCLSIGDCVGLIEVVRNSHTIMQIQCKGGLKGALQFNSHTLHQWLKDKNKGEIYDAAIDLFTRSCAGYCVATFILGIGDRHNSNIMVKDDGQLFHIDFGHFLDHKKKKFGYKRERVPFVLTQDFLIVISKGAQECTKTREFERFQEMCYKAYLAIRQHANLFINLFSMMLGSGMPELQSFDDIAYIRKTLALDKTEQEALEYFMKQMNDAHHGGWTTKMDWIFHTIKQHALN
Outline: as §1

PIM2 = molecular target: T4, PIM2 (Homo sapiens, UniProt Q9P1W9); details: PIM2, 1 μM; read-out: % control
T4 construct: purchased KinomeScan® (panel service)
T4 sequence (Q9P1W9 whole entry): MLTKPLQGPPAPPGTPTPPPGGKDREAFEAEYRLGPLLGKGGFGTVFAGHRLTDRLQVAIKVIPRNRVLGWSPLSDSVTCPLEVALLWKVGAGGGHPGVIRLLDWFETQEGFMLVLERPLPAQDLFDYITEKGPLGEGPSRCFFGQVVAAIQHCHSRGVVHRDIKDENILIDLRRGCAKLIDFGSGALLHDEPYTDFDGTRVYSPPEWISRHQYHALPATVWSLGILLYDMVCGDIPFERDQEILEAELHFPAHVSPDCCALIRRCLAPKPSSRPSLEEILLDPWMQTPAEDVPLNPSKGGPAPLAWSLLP
Outline: as §1

RIOK3 = molecular target: T5, RIOK3 (Homo sapiens, UniProt O14730); details: RIOK3, 1 μM; read-out: % control
T5 sequence (O14730 1-519): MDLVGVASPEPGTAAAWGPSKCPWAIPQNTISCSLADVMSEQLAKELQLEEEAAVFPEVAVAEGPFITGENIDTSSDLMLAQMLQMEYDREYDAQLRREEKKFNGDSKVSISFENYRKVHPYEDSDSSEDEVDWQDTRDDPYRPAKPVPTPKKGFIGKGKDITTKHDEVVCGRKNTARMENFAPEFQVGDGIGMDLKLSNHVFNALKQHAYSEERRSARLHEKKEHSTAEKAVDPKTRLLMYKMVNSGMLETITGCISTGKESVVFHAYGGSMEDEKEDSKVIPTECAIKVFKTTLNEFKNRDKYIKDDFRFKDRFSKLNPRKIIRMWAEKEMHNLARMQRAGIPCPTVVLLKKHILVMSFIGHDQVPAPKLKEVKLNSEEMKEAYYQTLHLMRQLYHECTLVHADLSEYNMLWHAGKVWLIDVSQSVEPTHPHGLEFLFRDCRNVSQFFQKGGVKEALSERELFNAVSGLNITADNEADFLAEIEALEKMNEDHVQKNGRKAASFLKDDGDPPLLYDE
Outline: as §1

[1] = molecular target: T6, TYK2(JH2domain-pseudokinase) (Homo sapiens, UniProt P29597); details: read-out: % control
T6 construct: TYK2(JH2domain-pseudokinase)
T6 sequence (P29597 589-875 limits assumed): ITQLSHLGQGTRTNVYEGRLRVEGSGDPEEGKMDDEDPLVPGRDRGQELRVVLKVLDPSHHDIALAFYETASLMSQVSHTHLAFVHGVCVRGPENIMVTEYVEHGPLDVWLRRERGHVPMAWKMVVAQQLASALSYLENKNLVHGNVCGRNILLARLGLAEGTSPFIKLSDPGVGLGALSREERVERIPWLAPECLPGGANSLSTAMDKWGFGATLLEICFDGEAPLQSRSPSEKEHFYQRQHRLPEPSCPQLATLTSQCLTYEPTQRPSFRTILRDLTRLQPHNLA
Outline: as §1

## CNc1c(-c2cnn([C@H]3CCN(C(C)=O)C[C@@H]3F)c2)cnc2[nH]cc(Cl)c12 [Compound 77, 1-((3S,4S)-4-(4-(3-chloro-4-(methylamino)-1H-pyrrolo[2,3-b]pyridin-5-yl)-1H-pyrazol-1-yl)-3-fluoropiperidin-1-yl)ethan-1-one]
DRAK2
  remaining binding at 1 µM: 47%
EPHA7
  remaining binding at 1 µM: 78%
MAPKAPK5
  remaining binding at 1 µM: 100%
PIK3CA(E545A)
  remaining binding at 1 µM: 80%
PIM2
  remaining binding at 1 µM: 100%
RIOK3
  remaining binding at 1 µM: 24%
[1]
  remaining binding at 1 µM: 84%

## O=C(c1ccc(-c2cnc3[nH]cc(Cl)c3c2NC2CCCC2)cc1)N1CCC(N2CCOCC2)CC1 [Compound 101, (4-(3-chloro-4-(cyclopentylamino)-1H-pyrrolo[2,3-b]pyridin-5-yl)phenyl)(4-morpholinopiperidin-1-yl)methanone]
DRAK2
  remaining binding at 1 µM: 92%
EPHA7
  remaining binding at 1 µM: 96%
MAPKAPK5
  remaining binding at 1 µM: 100%
PIK3CA(E545A)
  remaining binding at 1 µM: 98%
PIM2
  remaining binding at 1 µM: 94%
RIOK3
  remaining binding at 1 µM: 50%
[1]
  remaining binding at 1 µM: 100%

## CNc1c(-c2ccc(C(=O)N3CCC(N4CCOCC4)CC3)cc2)cnc2[nH]cc(Cl)c12 [Compound 96, (4-(3-chloro-4-(methylamino)-1H-pyrrolo[2,3-b]pyridin-5-yl)phenyl)(4-morpholinopiperidin-1-yl)methanone]
DRAK2
  remaining binding at 1 µM: 19%
EPHA7
  remaining binding at 1 µM: 96%
MAPKAPK5
  remaining binding at 1 µM: 100%
PIK3CA(E545A)
  remaining binding at 1 µM: 62%
PIM2
  remaining binding at 1 µM: 100%
RIOK3
  remaining binding at 1 µM: 36%
[1]
  remaining binding at 1 µM: 89%
